Test results published in US8952024B2, “Herbicidal pyrimidone derivatives” (E I du Pont de Nemours and Company, priority 2009, dated 2015).

Assays:
Type in all cases: in vivo
[1] = tested on: barnyardgrass (Echinochloa crus-galli); test: Test A pre-/postemergence plant response
Outline: (§1)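 Each species was treated preemergence via directed soil spray and postemergence at the one- to two-leaf stage, with compounds formulated in a non-phytotoxic solvent plus surfactant. Visual injury relative to untreated controls was rated after about ten days on a 0–100 scale.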

corn (Zea mays) = test: Test A pre-/postemergence plant response
Outline: as §1

[2] = tested on: giant foxtail (Setaria faberii); test: Test A pre-/postemergence plant response
Outline: as §1

[3] = tested on: large crabgrass (Digitaria sanguinalis); test: Test A pre-/postemergence plant response
Outline: as §1

[4] = tested on: morningglory (Ipomoea spp.); test: Test A pre-/postemergence plant response
Outline: as §1

[5] = tested on: pigweed (Amaranthus retroflexus); test: Test A pre-/postemergence plant response
Outline: as §1

[6] = tested on: velvetleaf (Abutilon theophrasti); test: Test A pre-/postemergence plant response
Outline: as §1

[7] = tested on: wheat (Triticum aestivum); test: Test A pre-/postemergence plant response
Outline: as §1

[8] = tested on: winter barley (Hordeum vulgare); test: Test B postemergence plant response; conditions: for Plant response rating, Barley: Postemergence; for Barley plant response rating (0 to 100 scale): postemergence, 0 is no effect, 100 is complete control
Outline: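 Plants grown in peat/vermiculite medium were sprayed postemergence at 2–18 cm height (1- to 4-leaf stage). After 13–15 days in the greenhouse, response was rated visually against untreated controls on a 0–100 scale (0 no effect, 100 complete control).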

[9] = tested on: barnyardgrass (Echinochloa crus-galli); test: Test B flooded paddy test; conditions: for Plant response rating, Flood, Barnyardgrass: 250 g ai/ha, flooded paddy test, visual rating on 0 to 100 scale (0 no effect, 100 complete control) after 13 to 15 days; for Plant response rating, Barnyardgrass: Flood (flooded paddy test), 13 to 15 days; for Barnyardgrass plant response rating: Flood, 31 g ai/ha, scale 0 to 100 (0 no effect, 100 complete control)
Outline: (§2)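 Visual scores run from 0 (no effect) to 100 (complete control), assigned by comparison with controls 13 to 15 days after treatment. Test compounds went straight into water standing 3 cm above the soil, around plants at the 2-leaf stage kept in a greenhouse.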

[10] = tested on: ducksalad (Heteranthera limosa); test: Test B flooded paddy test; conditions: for Plant response rating, Flood, Ducksalad: 250 g ai/ha, flooded paddy test, visual rating on 0 to 100 scale (0 no effect, 100 complete control) after 13 to 15 days; for Plant response rating, Ducksalad: Flood (flooded paddy test), 13 to 15 days; for Ducksalad plant response rating: Flood, 31 g ai/ha, scale 0 to 100 (0 no effect, 100 complete control)
Outline: as §2

rice (Oryza sativa) = test: Test B flooded paddy test; conditions: for Plant response rating, Flood, Rice: 250 g ai/ha, flooded paddy test, visual rating on 0 to 100 scale (0 no effect, 100 complete control) after 13 to 15 days; for Plant response rating, Rice: Flood (flooded paddy test), 13 to 15 days; for Rice plant response rating: Flood, 31 g ai/ha, scale 0 to 100 (0 no effect, 100 complete control)
Outline: as §2

[11] = tested on: umbrella sedge (Cyperus difformis); test: Test B flooded paddy test; conditions: for Plant response rating, Flood, Sedge, Umbrella: 250 g ai/ha, flooded paddy test, visual rating on 0 to 100 scale (0 no effect, 100 complete control) after 13 to 15 days; for Plant response rating, Sedge, Umbrella: Flood (flooded paddy test), 13 to 15 days; for Sedge, Umbrella plant response rating: Flood, 31 g ai/ha, scale 0 to 100 (0 no effect, 100 complete control)
Outline: as §2

[12] = Postemergence, 125 g ai/ha, 0 to 100 scale where 0 is no effect and 100 is complete control
[13] = Postemergence, 500 g ai/ha, visual injury, 0 to 100 scale (0 no effect, 100 complete control), approx. ten days
[14] = Preemergence, 125 g ai/ha, 0 to 100 scale, 0 = no effect, 100 = complete control
[15] = Preemergence, 500 g ai/ha, 0 to 100 scale, 0 = no effect, 100 = complete control
[16] = 31 g ai/ha, 0 to 100 scale (0 no effect, 100 complete control)
[17] = 250 g ai/ha, scale 0 to 100 (0 no effect, 100 complete control), 13 to 15 days
[18] = 62 g ai/ha, scale of 0 to 100 where 0 is no effect and 100 is complete control
[19] = 125 g ai/ha, scale 0 to 100, 0 is no effect, 100 is complete control
[20] = 125 g ai/ha, scale 0 to 100 (0 no effect, 100 complete control)
[21] = Postemergence, 500 g ai/ha, 0 to 100 scale, 0 = no effect, 100 = complete control, approx. ten days
[22] = Preemergence, 500 g ai/ha, visual injury, 0 to 100 scale (0 no effect, 100 complete control), approx. ten days

COCCCn1c(-c2cccc(F)c2)ncc(C(=O)C2=C(O)C3CCC(C3)C2=O)c1=O (centres unmarked) [Compound 238]
Plant response rating, Barnyardgrass [1, 12]: 100 | Barnyardgrass plant response rating [1, 13]: 100 | Plant response rating, Barnyardgrass [1, 14]: 70 | Plant response rating, Barnyardgrass [1, 15]: 100 | Plant response rating, Corn (corn (Zea mays); [12]): 40 | Corn plant response rating (corn (Zea mays); [13]): 80 | Plant response rating, Corn (corn (Zea mays); [14]): 0 | Plant response rating, Corn (corn (Zea mays); [15]): 50 | Plant response rating, Foxtail, Giant [2, 12]: 90 | Foxtail, Giant plant response rating [2, 13]: 100 | Plant response rating, Foxtail, Giant [2, 14]: 50 | Plant response rating, Foxtail, Giant [2, 15]: 90 | Plant response rating, Crabgrass, Large [3, 12]: 90 | Crabgrass, Large plant response rating [3, 13]: 100 | Plant response rating, Crabgrass, Large [3, 14]: 90 | Plant response rating, Crabgrass, Large [3, 15]: 100 | Plant response rating, Morningglory [4, 12]: 100 | Morningglory plant response rating [4, 13]: 100 | Plant response rating, Morningglory [4, 14]: 40 | Plant response rating, Morningglory [4, 15]: 90 | Plant response rating, Pigweed [5, 12]: 100 | Pigweed plant response rating [5, 13]: 100 | Plant response rating, Pigweed [5, 14]: 100 | Plant response rating, Pigweed [5, 15]: 100 | Plant response rating, Velvetleaf [6, 12]: 100 | Velvetleaf plant response rating [6, 13]: 100 | Plant response rating, Velvetleaf [6, 14]: 90 | Plant response rating, Velvetleaf [6, 15]: 100 | Plant response rating, Wheat [7, 12]: 50 | Wheat plant response rating [7, 13]: 80 | Plant response rating, Wheat [7, 14]: 0 | Plant response rating, Wheat [7, 15]: 40 | Plant response rating, Barley [8, 16]: 10 | Plant response rating, Barley ([8]; 62 g ai/ha, scale 0 to 100 (0 no effect, 100 complete control)): 30 | Plant response rating, Barley ([8]; 125 g ai/ha, scale 0 (no effect) to 100 (complete control), 13 to 15 days): 35 | Plant response rating, Barley [8, 17]: 40 | Plant response rating, Flood, Barnyardgrass [9]: 40 | Plant response rating, Barnyardgrass [9, 18]: 0 | Plant response rating, Barnyardgrass [9, 19]: 30 | Barnyardgrass plant response rating [9]: 0 | Plant response rating, Flood, Ducksalad [10]: 100 | Plant response rating, Ducksalad [10, 18]: 40 | Plant response rating, Ducksalad [10, 19]: 80 | Ducksalad plant response rating [10]: 0 | Plant response rating, Flood, Rice (rice (Oryza sativa)): 0 | Plant response rating, Rice (rice (Oryza sativa); [18]): 0 | Plant response rating, Rice (rice (Oryza sativa); [19]): 0 | Rice plant response rating (rice (Oryza sativa)): 0 | Plant response rating, Flood, Sedge, Umbrella [11]: 80 | Plant response rating, Sedge, Umbrella [11, 18]: 0 | Plant response rating, Sedge, Umbrella [11, 19]: 65 | Sedge, Umbrella plant response rating [11]: 0

O=C1CCCC(O)=C1C(=O)c1cnc(-c2cc(F)cc(F)c2)n(C2CCCCC2)c1=O [Compound 181]
Plant response rating, Barnyardgrass [1, 12]: 100 | Barnyardgrass plant response rating [1, 13]: 100 | Plant response rating, Barnyardgrass [1, 14]: 20 | Plant response rating, Barnyardgrass [1, 15]: 100 | Plant response rating, Corn (corn (Zea mays); [12]): 10 | Corn plant response rating (corn (Zea mays); [13]): 50 | Plant response rating, Corn (corn (Zea mays); [14]): 0 | Plant response rating, Corn (corn (Zea mays); [15]): 0 | Plant response rating, Foxtail, Giant [2, 12]: 100 | Foxtail, Giant plant response rating [2, 13]: 100 | Plant response rating, Foxtail, Giant [2, 14]: 30 | Plant response rating, Foxtail, Giant [2, 15]: 80 | Plant response rating, Crabgrass, Large [3, 12]: 90 | Crabgrass, Large plant response rating [3, 13]: 90 | Plant response rating, Crabgrass, Large [3, 14]: 90 | Plant response rating, Crabgrass, Large [3, 15]: 100 | Plant response rating, Morningglory [4, 12]: 30 | Morningglory plant response rating [4, 13]: 100 | Plant response rating, Morningglory [4, 14]: 0 | Plant response rating, Morningglory [4, 15]: 30 | Plant response rating, Pigweed [5, 12]: 100 | Pigweed plant response rating [5, 13]: 100 | Plant response rating, Pigweed [5, 14]: 100 | Plant response rating, Pigweed [5, 15]: 100 | Plant response rating, Velvetleaf [6, 12]: 100 | Velvetleaf plant response rating [6, 13]: 100 | Plant response rating, Velvetleaf [6, 14]: 70 | Plant response rating, Velvetleaf [6, 15]: 100 | Plant response rating, Wheat [7, 12]: 30 | Wheat plant response rating [7, 13]: 60 | Plant response rating, Wheat [7, 14]: 0 | Plant response rating, Wheat [7, 15]: 20 | Barley plant response rating (0 to 100 scale) ([8]; 62 g ai/ha, 13 to 15 days): 40 | Plant response rating, Barley [8, 16]: 5 | Plant response rating, Barley [8, 20]: 50 | Plant response rating, Barley [8, 17]: 55 | Plant response rating, Barnyardgrass [9, 19]: 70 | Barnyardgrass plant response rating [9]: 0 | Plant response rating, Ducksalad [10, 19]: 90 | Ducksalad plant response rating [10]: 85 | Plant response rating, Rice (rice (Oryza sativa); [19]): 65 | Rice plant response rating (rice (Oryza sativa)): 0 | Plant response rating, Sedge, Umbrella [11, 19]: 85 | Sedge, Umbrella plant response rating [11]: 75

CCCn1c(-c2cccc(Br)c2)ncc(C(=O)C2=C(O)CCCC2=O)c1=O [Compound 141]
Plant response rating, Barnyardgrass [1, 12]: 90 | Plant response rating, Barnyardgrass [1, 21]: 90 | Plant response rating, Barnyardgrass [1, 14]: 60 | Plant response rating, Barnyardgrass [1, 22]: 100 | Plant response rating, Corn (corn (Zea mays); [12]): 20 | Plant response rating, Corn (corn (Zea mays); [21]): 30 | Plant response rating, Corn (corn (Zea mays); [14]): 0 | Plant response rating, Corn (corn (Zea mays); [22]): 0 | Plant response rating, Foxtail, Giant [2, 12]: 80 | Plant response rating, Foxtail, Giant [2, 21]: 90 | Plant response rating, Foxtail, Giant [2, 14]: 40 | Plant response rating, Foxtail, Giant [2, 22]: 80 | Plant response rating, Crabgrass, Large [3, 12]: 80 | Plant response rating, Crabgrass, Large [3, 21]: 90 | Plant response rating, Crabgrass, Large [3, 14]: 80 | Plant response rating, Crabgrass, Large [3, 22]: 100 | Plant response rating, Morningglory [4, 12]: 70 | Plant response rating, Morningglory [4, 21]: 100 | Plant response rating, Morningglory [4, 14]: 0 | Plant response rating, Morningglory [4, 22]: 30 | Plant response rating, Pigweed [5, 12]: 90 | Plant response rating, Pigweed [5, 21]: 100 | Plant response rating, Pigweed [5, 14]: 70 | Plant response rating, Pigweed [5, 22]: 100 | Plant response rating, Velvetleaf [6, 12]: 100 | Plant response rating, Velvetleaf [6, 21]: 100 | Plant response rating, Velvetleaf [6, 14]: 70 | Plant response rating, Velvetleaf [6, 22]: 100 | Plant response rating, Wheat [7, 12]: 0 | Plant response rating, Wheat [7, 21]: 0 | Plant response rating, Wheat [7, 14]: 0 | Plant response rating, Wheat [7, 22]: 0 | Barley plant response rating (0 to 100 scale) ([8]; 62 g ai/ha, 13 to 15 days): 0 | Plant response rating, Barley [8, 16]: 0 | Plant response rating, Barley [8, 20]: 5 | Plant response rating, Barley [8, 17]: 5 | Plant response rating, Flood, Barnyardgrass [9]: 50 | Plant response rating, Barnyardgrass [9, 18]: 20 | Plant response rating, Flood, Ducksalad [10]: 85 | Plant response rating, Ducksalad [10, 18]: 75 | Plant response rating, Flood, Rice (rice (Oryza sativa)): 35 | Plant response rating, Rice (rice (Oryza sativa); [18]): 0 | Plant response rating, Flood, Sedge, Umbrella [11]: 85 | Plant response rating, Sedge, Umbrella [11, 18]: 80
